These results are taken from patent US20030087395A1, “Cardiotrophin-like cytokine” (Human Genome Sciences, Inc., priority 1997, published 2003).

In one test the test system is PC12 cells. In words: EGR-SEAP/PC12 screening assay for neuronal activity. The format is cell-based, rat. As to conditions: 50 ng/ul; PC12 EGR-SEAP; typically seen. An excerpt:
Particularly, the following protocol is used to assess neuronal activity in PC12 cell lines. PC12 cells (rat phenochromocytoma cells) are known to proliferate and/or differentiate by activation with a number of mitogens, such as TPA (tetradecanoyl phorbol acetate), NGF (nerve growth factor), and EGF (epidermal growth factor). The EGR1 gene expression is activated during this treatment. Thus, by stably transfecting PC12 cells with a construct containing an EGR promoter linked to SEAP reporter, activation of PC12 cells by CLC can be assessed.
The EGR/SEAP reporter construct can be assembled by the following protocol. The EGR-1 promoter sequence (−633 to +1; Sakamoto, K., et al., Oncogene 6:867-871 (1991)) can be PCR amplified from human genomic DNA using the following primers. The 5′ primer has the sequence: 5′-GCGCTCGAGGGATGACAGCGATAGAACCCCGG-3′ (SEQ ID NO:19) and the 3′ primer has the sequence: 5′-GCGAAGCTTCGCGACTCCCCGGATCCGCCTC-3′ (SEQ ID NO:20).
Using the GAS:SEAP/Neo vector produced in Example 6, EGR1 amplified product can then be inserted into this vector. Linearize the GAS:SEAP/Neo vector using restriction enzymes Xho I and Hind III, removing the GAS/SV40 stuffer. Restrict the EGR1 amplified product with these same enzymes. Ligate the vector and the EGR1 promoter. […]

In test [1] the test system is NF-κB promoter element in Jurkat T-cells. As to the kind of experiment: NF-κB/SEAP screening assay in Jurkat T-cells. The format is cell-based. As to conditions: 0.1, 1, 10 ng, typically observed. On the procedure: Due to its central role and ability to respond to a range of stimuli, reporter constructs utilizing the NF-κB promoter element are used to screen the supernatants produced in Example 6. Activators or inhibitors of NF-κB would be useful in treating diseases. For example, inhibitors of NF-κB could be used to treat those diseases related to the acute or chronic activation of NF-κB, such as rheumatoid arthritis and others.
PCR amplification is performed using the SV40 promoter template present in the pb-gal:promoter plasmid obtained from Clontech. The resulting PCR fragment is digested with Xho I and Hind III and subcloned into BLSK2-(Stratagene). Sequencing with the T7 and T3 primers confirms the insert contains the following sequence: 5′-CTC
Next, replace the SV40 minimal promoter element present in the pSEAP2-promoter plasmid (Clontech) with this NF-κB/SV40 fragment using Xho I and Hind III.
Particularly, the NF-κB/SV40/SEAP cassette was inserted into pGFP-1 (Clontech), replacing the GFP gene, after restricting pGFP- 1 with Sal I and Not I.
Once NF-κB/SV40/SEAP/Neo vector is created, stable Jurkat T-cells are created and maintained according to the protocol described in Example 9. Similarly, the method for assaying supernatants with these stable Jurkat T-cells is also described in Example 9. […]

As for “NGF: growth factor known to activate PC12 cells through EGR”, the “induction of SEAP in positive control wells” value in the test with PC12 cells is “Over fifty-fold induction”.

In the case of TNF alpha, in test [1], the “activation in positive control wells” value is on record as 5-10 fold.
